Laboratory results from US6506708B1, “3-(heterocyclyl)-benzoylpyrazole-derivatives” (BASF Aktiengesellschaft, priority 1998, dated 2003).

Columns and labels:
lamb's-quarters = test: greenhouse post-emergence herbicidal test; format: in vivo, Chenopodium album; conditions: application rates of 0.25 or 0.125 kg/ha
Description: (§1) The seeds of the test plants were sown separately for each species. For the post-emergence treatment, the test plants were first grown to a height of 3 to 15 cm, depending on the plant habit, and only then treated with the active compounds which had been suspended or emulsified in water. The test plants were for this purpose either sown directly and grown in the same containers, or they were first grown separately as seedlings and transplanted into the test containers a few days prior to treatment. The application rate for the post-emergence treatment was 0.25, 0.125 or 0.0625 kg of a.s. (active substance)/ha. Depending on the species, the plants were kept at 10-25° C. or […] The test period extended over 2 to 4 weeks. During this time, the plants were tended, and their response to the individual treatments was evaluated. The evaluation was carried out using a scale from 0 to 100. 100 means no emergence of the plants, or complete destruction of at least the aerial parts and 0 means no damage, or normal course of growth. The plants used in the greenhouse experiments were of the following species: [table]

black nightshade = test: greenhouse post-emergence herbicidal test; format: in vivo, Solanum nigrum; conditions: application rates of 0.25 or 0.125 kg/ha
Description: as §1

lady's-thumb = test: greenhouse post-emergence herbicidal test; format: in vivo, Polygonum persicaria; conditions: application rates of 0.25 or 0.125 kg/ha
Description: as §1

barnyard grass = test: greenhouse post-emergence herbicidal test; format: in vivo, Echinochloa crus-galli; conditions: application rates of 0.25 or 0.125 kg/ha
Description: as §1

green foxtail = test: greenhouse post-emergence herbicidal test; format: in vivo, Setaria eiridis; conditions: application rates of 0.25 or 0.125 kg/ha
Description: as §1

Row | Structure (SMILES) | melting point | further results
1 | CC(C)(C)n1ncc(C(=O)c2ccc(S(C)(=O)=O)c(C3=NOCC3)c2Cl)c1O [Compound 2.1, 4-[2-Chloro-3-(4,5-dihydroisoxazol-3-yl)-4-methylsulfonylbenzoyl]-5-hydroxy-1-(1,1-dimethyl-1-ethyl)-1H-pyrazole] | 198 to 200 °C | 
2 | CC(C)n1ncc(C(=O)c2ccc(S(C)(=O)=O)c(C3=NOCC3)c2Cl)c1O [Compound 2.2] | 210 to 215 °C | post-emergence herbicidal action against lamb's-quarters (lamb's-quarters): very good post-emergence action; post-emergence herbicidal action against black nightshade (black nightshade): very good post-emergence action; post-emergence herbicidal action against lady's-thumb (lady's-thumb): very good post-emergence action; post-emergence herbicidal action against barnyard grass (barnyard grass): very good post-emergence action; post-emergence herbicidal action against green foxtail (green foxtail): very good post-emergence action
3 | CCOc1c(C(=O)c2ccc(S(C)(=O)=O)c(C3=NOCC3)c2Cl)cnn1C(C)C [Compound 2.4] | 150 to 155 °C | 
4 | COc1c(C(=O)c2ccc(S(C)(=O)=O)c(C3=NOCC3)c2Cl)cnn1C(C)C [Compound 2.5] | 185 to 190 °C | 
5 | CC(C)C(C)n1ncc(C(=O)c2ccc(S(C)(=O)=O)c(C3=NOCC3)c2Cl)c1O (stereo not drawn) [Compound 2.9] | 150 to 155 °C | 
6 | COc1c(C(=O)c2cnn(C(C)C)c2O)ccc(S(C)(=O)=O)c1C1=NOCC1 [Compound 2.13] | 154 to 156 °C | 
7 | CC(C)C(C(C)C)n1ncc(C(=O)c2ccc(S(C)(=O)=O)c(C3=NOCC3)c2Cl)c1O [Compound 2.15] | 200 to 205 °C | 

Now from value to compound, other results behind:

Row | melting point | Structure (SMILES) | further results
8 | 175 to 180 °C | CC(C)Oc1c(C(=O)c2ccc(S(C)(=O)=O)c(C3=NOCC3)c2Cl)cnn1C(C)C [Compound 2.3] | 
9 | 125 to 130 °C | CC(C)Oc1c(C(=O)c2ccc(S(C)(=O)=O)c(C3=NOCC3)c2Cl)cnn1C(C)C(C)C (stereo not drawn) [Compound 2.10] | 
10 | 65 to 70 °C | COc1c(C(=O)c2ccc(S(C)(=O)=O)c(C3=NOCC3)c2Cl)cnn1C(C(C)C)C(C)C [Compound 2.16] | 
